Patent publication US20050060764A1, “Mouse model for bone metabolism” (priority 2003, published 2005)
Entries after “also recorded” stand apart in the source; their conditions may differ. Strand notation (5' to 3'): a small letter for the sugar, then the base; units joined by * are phosphorothioate-linked, units joined directly phosphodiester-linked; [ ] holds rarer units or linkages, { } end groups; capitals alone tell only the bases. e = 2'-O-(2-methoxyethyl) (MOE); [5mC] = 5-methylcytosine; d = 2'-deoxy (DNA)

Key:
RANKL mRNA [1] = test: Antisense inhibition of RANKL mRNA expression followed by PTH treatment in primary mouse osteoblast cells: dose response (Table 8); type: cell-based; conditions: 63 nM oligonucleotide 24 h, 10 nM PTH last 2 h, relative to PTH alone
RANKL mRNA [2] = test: as above; type: cell-based; conditions: for % RANKL mRNA inhibition: 10 nM PTH last 2 h, relative to PTH alone; for inhibition of PTH-induced increase in RANKL mRNA expression: primary mouse osteoblast cells, 63 nM, 125 nM, 250 nM, or 500 nM, 24 hours, FuGENE 6, 10 nM PTH last 2 hours
Protocol: Primary mouse osteoblasts were prepared from calvaria of neonatal mice purchased from Charles River Laboratories. […] Cells were not passaged. Cells were seeded onto 6-well plates (Falcon-Primaria #353846) at a density of 50,000 cells/well for use in antisense oligonucleotide transfection.
In a further embodiment of this invention, the effect of RANKL antisense oligonucleotides and PTH treatment on the expression of RANKL was determined in primary osteoblast cells isolated from mice skull caps.
ISIS 143624 ([…], SEQ ID NO: 348) was used as a control oligonucleotide. […] All cytidine residues are 5-methylcytidines.
Primary osteoblastic cells were transfected for 24 hours with either Isis 180819 (SEQ ID NO: 185) or the control oligo ISIS 143624 (SEQ ID NO: 348) at a dose of […], 125 nM, 250 nM, or 500 nM by the methods described herein but using the transfection reagent FuGENE 6 (Roche Applied Science, Indianapolis, Ind.). During the last 2 hours of oligonucleotide transfection, the cells were treated with 10 nM PTH. The RNA was then harvested and the expression levels of […] were measured by the methods described herein. The results are expressed as percent inhibition relative to PTH treatment alone and represent the average from three experiments.

[3] = Serum calcium concentration after PTH infusion in mice: specificity and dose response of RANK antisense oligonucleotide (Table 15); type: in vivo, mouse; conditions: then 24 h PTH
Protocol: (§1) In accordance with the present invention, the specificity of RANK inhibition by a RANK antisense oligonucleotide was compared to that of an 8-base pair mismatch oligonucleotide.
(§2) ISIS 181080 ([…], SEQ ID NO: 357) is an antisense oligonucleotide targeted to mouse RANK. ISIS 208565 ([…], SEQ ID NO: 358) is an 8-base pair mismatch oligonucleotide. […] All cytidine residues are 5-methylcytidines.
(§3) Female Swiss-Webster mice (5-8 wks old) fed a low-calcium diet were treated for two weeks with either ISIS 181080 or ISIS 208565. The dose of oligonucleotide was either 40 mg/kg, 30 mg/kg, 20 mg/kg, or 10 mg/kg. After the 2-week treatment with oligonucleotides, the mice were infused with PTH by subcutaneously implanted mini-pumps at a dose of 4 ug/100 g over 24 hours. A group of control mice were dosed with either saline, PTH alone (1 ug/100 g/6 hr) or calcitonin (400 ng) plus PTH (1 ug/100 g/6 hr). After 24 hours of PTH infusion (total PTH delivery of 4 ug/100 g), the mice were sacrificed and measurements were made of serum calcium with the Sigma Diagnostics Calcium Kit (Sigma-Aldrich) and RANK mRNA expression in proximal tibia (as described in other examples herein). The results shown in Table 15 are the average from four mice per group. Percent inhibition of RANK mRNA is normalized to PTH treatment alone. […] The data also illustrate that these effects are occurring due to an antisense mechanism.

RANK mRNA = test: Antisense inhibition of RANK mRNA expression in proximal tibia after PTH infusion in mice: specificity and dose response (Table 15); type: in vivo, mouse; conditions: then 24 h PTH, proximal tibia
Protocol: as §1, §2, §3

RANKL mRNA [4] = test: RANKL mRNA % inhibition after PTH infusion in mice treated with RANKL antisense oligonucleotides for two weeks (Table 10); type: in vivo, mouse; conditions: then 24 h PTH infusion, normalized to PTH alone
Protocol: (§4) Female Swiss-Webster (5-8 wks old) mice fed a low-calcium diet were dosed subcutaneously for two weeks with either the oligonucleotides ISIS 180819 (SEQ ID NO: 185) or 180814 (SEQ ID NO: 180) at concentrations of 5 mg/kg, 15 mg/kg, 30 mg/kg, or 40 mg/kg. A control group of mice were treated with calcitonin (400 ng) plus PTH (1 ug/100 g/6 hr), PTH alone (1 ug/100 g/6 hr) or saline. Treatment with oligonucleotides was followed with infusion of PTH by subcutaneously implanted mini-pumps at a dose of 1 ug/100 g/6 hr. After 24 hours of PTH infusion (total PTH delivery of 4 ug/100 g), the mice were sacrificed and the serum calcium concentration was measured with the Sigma Diagnostics Calcium Kit (Sigma-Aldrich). The data, summarized in Table 10 are averages from eight mice. Percent mRNA inhibition is normalized to PTH alone treatment.

mouse RANKL mRNA = test: Antisense inhibition of mouse RANKL mRNA levels in C2C12 cells, quantitative real-time PCR (Table 2); type: cell-based; set-up: concentration or dose not given beside the values; conditions: averages from three experiments
How it was run: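 C2C12 cells seeded at ~10,000 cells/cm^2, treated with antisense oligonucleotides (all C as 5-methylcytidine) in triplicate and harvested 16-24 h later. Mouse RANKL mRNA quantified by real-time RT-PCR with a FAM/TAMRA probe, with mouse GAPDH (JOE/TAMRA probe) as reference.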

[5] = Serum calcium concentration 24 hours after PTH infusion in mice treated with RANKL antisense oligonucleotides (Table 10); type: in vivo, mouse; conditions: for serum calcium: then 24 h PTH infusion
Protocol: In accordance with the present invention, the effect of antisense oligonucleotide inhibition on PTH-induced serum calcium concentration increase was measured in mice. The serum calcium concentration in mice was measured as a function of antisense oligonucleotide dose. Calcitonin, a known bone antiresorptive agent, was used as a control for antiresorptive activity.
as §4

RANKL mRNA [6] = test: Antisense inhibition of RANKL mRNA in proximal tibia and calvaria of mice after PTH infusion: dose response and delivery method (Table 9); type: in vivo, mouse
Protocol: In accordance with the present invention, the levels of RANKL in the proximal tibia and calvaria in mice were measured following antisense oligonucleotide treatment and PTH infusion.
Female Swiss-Webster mice (5-8 wks old) fed a low-calcium diet were treated with ISIS 180819 (SEQ ID NO: 185) by subcutaneous injection at a dose of either 30 mg/kg or 50 mg/kg or intraperitoneal injection at a dose of either 15 mg/kg, 30 mg/kg or 50 mg/kg. After 2 weeks of daily treatment, the mice were infused with PTH at a dose of 1 ug/100 g/6 hr. After 24 hours of PTH infusion (total PTH delivery of 4 ug/100 g), the mice were sacrificed. The proximal tibia and calvaria were isolated and the level of RANKL mRNA expression was determined in each using two different primer-probe sets to confirm the results. The first primer-probe set was #1207, consisting of […] (forward primer, SEQ ID NO: 349), […] (reverse primer, SEQ ID NO: 350) and […] (probe, SEQ ID NO: 351). The second primer-probe set was #1015, consisting of […] (forward primer, SEQ ID NO: 352), […] (reverse primer, SEQ ID NO: 353) and […] (probe, SEQ ID NO: 354). The results are expressed as percent inhibition relative to PTH treatment alone and represent the average of eight mice per group.

[7] = 5 mg/kg subcutaneously two weeks
[8] = 15 mg/kg subcutaneously two weeks
[9] = 30 mg/kg subcutaneously two weeks
[10] = 40 mg/kg subcutaneously two weeks

143624 (antisense eT*eG*e[5mC]*eT*e[5mC]*dA*dG*d[5mC]*dG*dA*dG*dT*dG*dT*dG*e[5mC]*e[5mC]*eA*eG*e[5mC]) [compound 143624]
% RANKL mRNA inhibition (RANKL mRNA [1]): 4% | % RANKL mRNA inhibition (RANKL mRNA [2]; 125 nM oligonucleotide 24 h): 3% | % RANKL mRNA inhibition (RANKL mRNA [2]; 250 nM oligonucleotide 24 h): 0% | % RANKL mRNA inhibition (RANKL mRNA [2]; 500 nM oligonucleotide 24 h): 9%

TCCTCGAGAGGTCTCCTTGC (antisense eT*e[5mC]*e[5mC]*eT*e[5mC]*dG*dA*dG*dA*dG*dG*dT*d[5mC]*dT*d[5mC]*e[5mC]*eT*eT*eG*e[5mC]) [ISIS 208565, 8-base pair mismatch oligonucleotide, 2′-MOE gapmer, reference compound]
serum calcium ([3]; 10 mg/kg two weeks): 21 mg/dL | serum calcium ([3]; 20 mg/kg two weeks): 17 mg/dL | serum calcium ([3]; 30 mg/kg two weeks): 18 mg/dL | serum calcium ([3]; 40 mg/kg two weeks): 16 mg/dL | RANK mRNA % inhibition (normalized to PTH) (RANK mRNA; 10 mg/kg two weeks): 0% | RANK mRNA % inhibition (normalized to PTH) (RANK mRNA; 20 mg/kg two weeks): 0% | RANK mRNA % inhibition (normalized to PTH) (RANK mRNA; 30 mg/kg two weeks): 19% | RANK mRNA % inhibition (normalized to PTH) (RANK mRNA; 40 mg/kg two weeks): 7%

TGCTCAGCGAGTGTGCCAGC (sugars by position and backbone not given here; further chemistry not fully specified) [ISIS 143624, control oligonucleotide, 2′-MOE gapmer, reference compound]
inhibition of PTH-induced increase in RANKL mRNA expression (RANKL mRNA [2]): unable to reduce RANKL mRNA levels

gtcttacacatgtatagaca (antisense eG*eT*e[5mC]*eT*eT*dA*d[5mC]*dA*d[5mC]*dA*dT*dG*dT*dA*dT*eA*eG*eA*e[5mC]*eA) [ISIS 180814, 2′-MOE gapmer targeted to mouse RANKL]
RANKL mRNA, % inhib (RANKL mRNA [4]; [7]): 0 % inhib | RANKL mRNA, % inhib (RANKL mRNA [4]; [8]): 0 % inhib | RANKL mRNA, % inhib (RANKL mRNA [4]; [9]): 27 % inhib | RANKL mRNA, % inhib (RANKL mRNA [4]; [10]): 6 % inhib | % INHIB (inhibition of mouse RANKL mRNA levels) (mouse RANKL mRNA): at least 40% | serum calcium [5, 7]: 22 mg/dL | serum calcium [5, 8]: 20 mg/dL | serum calcium [5, 9]: 18 mg/dL | serum calcium [5, 10]: 19 mg/dL

tgcaggtcccagcgcaatgt (antisense eT*eG*e[5mC]*eA*eG*dG*dT*d[5mC]*d[5mC]*d[5mC]*dA*dG*d[5mC]*dG*d[5mC]*eA*eA*eT*eG*eT) [ISIS 180819, 2′-MOE gapmer targeted to mouse RANKL]
RANKL mRNA, % inhib (RANKL mRNA [4]; [7]): 0 % inhib | RANKL mRNA, % inhib (RANKL mRNA [4]; [8]): 0 % inhib | RANKL mRNA, % inhib (RANKL mRNA [4]; [9]): 0 % inhib | % INHIB (inhibition of mouse RANKL mRNA levels) (mouse RANKL mRNA): at least 40% | % Inhibition of RANKL (RANKL mRNA [6]; intraperitoneal injection 15 mg/kg daily 2 weeks, proximal tibia, primer-probe set 1015): 2% | % Inhibition of RANKL (RANKL mRNA [6]; intraperitoneal injection 15 mg/kg daily 2 weeks, proximal tibia, primer-probe set 1207): 0% | % Inhibition of RANKL (RANKL mRNA [6]; intraperitoneal injection 30 mg/kg daily 2 weeks, calvaria, primer-probe set 1015): 39% | % Inhibition of RANKL (RANKL mRNA [6]; intraperitoneal injection 30 mg/kg daily 2 weeks, calvaria, primer-probe set 1207): 24% | % Inhibition of RANKL (RANKL mRNA [6]; intraperitoneal injection 30 mg/kg daily 2 weeks, proximal tibia, primer-probe set 1015): 0% | % Inhibition of RANKL (RANKL mRNA [6]; intraperitoneal injection 30 mg/kg daily 2 weeks, proximal tibia, primer-probe set 1207): 0% | % Inhibition of RANKL (RANKL mRNA [6]; intraperitoneal injection 50 mg/kg daily 2 weeks, calvaria, primer-probe set 1015): 51% | % Inhibition of RANKL (RANKL mRNA [6]; intraperitoneal injection 50 mg/kg daily 2 weeks, calvaria, primer-probe set 1207): 54% | % Inhibition of RANKL (RANKL mRNA [6]; intraperitoneal injection 50 mg/kg daily 2 weeks, proximal tibia, primer-probe set 1015): 21% | % Inhibition of RANKL (RANKL mRNA [6]; intraperitoneal injection 50 mg/kg daily 2 weeks, proximal tibia, primer-probe set 1207): 13% | inhibition of PTH-induced increase in RANKL mRNA expression in the proximal tibia and calvaria (RANKL mRNA [6]; mice, 2 weeks daily s.c. 30 or 50 mg/kg or i.p. 15, 30 or 50 mg/kg, 24 hours PTH infusion): capable of inhibiting the PTH-induced increase in RANKL mRNA expression; also recorded: greater inhibition observed in the calvaria | % Inhibition of RANKL (RANKL mRNA [6]; subcutaneous injection 30 mg/kg daily 2 weeks, calvaria, primer-probe set 1015): 38% | % Inhibition of RANKL (RANKL mRNA [6]; subcutaneous injection 30 mg/kg daily 2 weeks, calvaria, primer-probe set 1207): 38% | % Inhibition of RANKL (RANKL mRNA [6]; subcutaneous injection 30 mg/kg daily 2 weeks, proximal tibia, primer-probe set 1015): 5% | % Inhibition of RANKL (RANKL mRNA [6]; subcutaneous injection 30 mg/kg daily 2 weeks, proximal tibia, primer-probe set 1207): 10% | % Inhibition of RANKL (RANKL mRNA [6]; subcutaneous injection 50 mg/kg daily 2 weeks, calvaria, primer-probe set 1015): 60% | % Inhibition of RANKL (RANKL mRNA [6]; subcutaneous injection 50 mg/kg daily 2 weeks, calvaria, primer-probe set 1207): 52% | % Inhibition of RANKL (RANKL mRNA [6]; subcutaneous injection 50 mg/kg daily 2 weeks, proximal tibia, primer-probe set 1015): 32% | % Inhibition of RANKL (RANKL mRNA [6]; subcutaneous injection 50 mg/kg daily 2 weeks, proximal tibia, primer-probe set 1207): 36% | serum calcium [5, 7]: 21 mg/dL | serum calcium [5, 8]: 17 mg/dL | serum calcium [5, 9]: 19 mg/dL | PTH-induced increase in serum calcium concentration ([5]; mice, s.c. two weeks 5, 15, 30 or 40 mg/kg, 24 hours PTH infusion): lessen the PTH-induced increase in serum calcium concentration | inhibition of PTH-induced increase in RANKL mRNA expression (RANKL mRNA [2]): able to inhibit the PTH-induced increase in RANKL mRNA expression
